Legend:
Assay type in all cases: biochemical
Details in all cases: tested at 10 uM, read-out: percent inhibition of the kinase activity
[1] = biological target: T1, ABL H396P (Homo sapiens, UniProt P00519, H396P); assay: ProfilerPro Kinase Selectivity, ABL H396P
T1 construct: purchased Caliper LifeSciences
Procedure: (§1) Kinome selectivity profiling was performed using two example compounds according to the manufacturer's instructions using Caliper LifeSciences' ProfilerPro Kinase Selectivity Assay Kits. Compounds prepared in Examples 1 and 7 were tested at 10 uM and data were recorded using the Caliper LabChip® EZ Reader™. Each compounds' percent inhibition of the kinase activity measured in this manner is reported in the following lists.

[2] = biological target: T2, ABL1 Y253F (Homo sapiens, UniProt P00519, Y253F); assay: ProfilerPro Kinase Selectivity, ABL1 Y253F
T2 construct: purchased Caliper LifeSciences
Procedure: as §1

[3] = biological target: T3, AKT1 (Homo sapiens, UniProt P31749); assay: ProfilerPro Kinase Selectivity, AKT1
T3 construct: purchased Caliper LifeSciences
Procedure: as §1

[4] = biological target: T4, AURB (Homo sapiens, UniProt Q96GD4); assay: ProfilerPro Kinase Selectivity, AURB
T4 construct: purchased Caliper LifeSciences
Procedure: as §1

[5] = biological target: T5, AURC (Homo sapiens, UniProt Q9UQB9); assay: ProfilerPro Kinase Selectivity, AURC
T5 construct: purchased Caliper LifeSciences
Procedure: as §1

[6] = biological target: T6, AXL (Homo sapiens, UniProt P30530); assay: ProfilerPro Kinase Selectivity, AXL
T6 construct: purchased Caliper LifeSciences
Procedure: as §1

[7] = biological target: T7, BLK (Homo sapiens, UniProt P51451); assay: ProfilerPro Kinase Selectivity, BLK
T7 construct: purchased Caliper LifeSciences
Procedure: as §1

[8] = biological target: T8, CAMK1A (Homo sapiens, UniProt Q14012); assay: ProfilerPro Kinase Selectivity, CAMK1A
T8 construct: purchased Caliper LifeSciences
T8 sequence (Q14012 whole entry): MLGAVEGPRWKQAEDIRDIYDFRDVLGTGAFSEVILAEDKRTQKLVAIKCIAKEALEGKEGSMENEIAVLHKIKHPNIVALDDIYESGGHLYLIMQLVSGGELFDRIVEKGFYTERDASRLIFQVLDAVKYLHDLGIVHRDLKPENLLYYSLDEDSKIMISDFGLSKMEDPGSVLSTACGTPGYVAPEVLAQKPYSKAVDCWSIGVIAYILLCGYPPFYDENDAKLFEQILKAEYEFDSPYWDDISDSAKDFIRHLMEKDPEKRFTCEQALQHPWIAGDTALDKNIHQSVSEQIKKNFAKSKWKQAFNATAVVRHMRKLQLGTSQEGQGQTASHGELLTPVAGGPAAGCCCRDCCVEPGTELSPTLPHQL
Procedure: as §1

[9] = biological target: T9, CAMK2B (Homo sapiens, UniProt Q13554); assay: ProfilerPro Kinase Selectivity, CAMK2B
T9 construct: purchased Caliper LifeSciences
Procedure: as §1

[10] = biological target: T10, CDK1/CYCB1 (Homo sapiens, UniProt P06493); assay: ProfilerPro Kinase Selectivity, CDK1/CYCB1
T10 construct: purchased Caliper LifeSciences
Procedure: as §1

[11] = biological target: T11, CDK3 (Homo sapiens, UniProt Q00526); assay: ProfilerPro Kinase Selectivity, CDK3
T11 construct: purchased Caliper LifeSciences
Procedure: as §1

[12] = biological target: T12, EPHA3 (Homo sapiens, UniProt P29320); assay: ProfilerPro Kinase Selectivity, EPHA3
T12 construct: purchased Caliper LifeSciences
Procedure: as §1

[13] = biological target: T13, EPHB1 (Homo sapiens, UniProt P54762); assay: ProfilerPro Kinase Selectivity, EPHB1
T13 construct: purchased Caliper LifeSciences
Procedure: as §1

[14] = biological target: T14, FER (Homo sapiens, UniProt P16591); assay: ProfilerPro Kinase Selectivity, FER
T14 construct: purchased Caliper LifeSciences
T14 sequence (P16591 whole entry, species assumed): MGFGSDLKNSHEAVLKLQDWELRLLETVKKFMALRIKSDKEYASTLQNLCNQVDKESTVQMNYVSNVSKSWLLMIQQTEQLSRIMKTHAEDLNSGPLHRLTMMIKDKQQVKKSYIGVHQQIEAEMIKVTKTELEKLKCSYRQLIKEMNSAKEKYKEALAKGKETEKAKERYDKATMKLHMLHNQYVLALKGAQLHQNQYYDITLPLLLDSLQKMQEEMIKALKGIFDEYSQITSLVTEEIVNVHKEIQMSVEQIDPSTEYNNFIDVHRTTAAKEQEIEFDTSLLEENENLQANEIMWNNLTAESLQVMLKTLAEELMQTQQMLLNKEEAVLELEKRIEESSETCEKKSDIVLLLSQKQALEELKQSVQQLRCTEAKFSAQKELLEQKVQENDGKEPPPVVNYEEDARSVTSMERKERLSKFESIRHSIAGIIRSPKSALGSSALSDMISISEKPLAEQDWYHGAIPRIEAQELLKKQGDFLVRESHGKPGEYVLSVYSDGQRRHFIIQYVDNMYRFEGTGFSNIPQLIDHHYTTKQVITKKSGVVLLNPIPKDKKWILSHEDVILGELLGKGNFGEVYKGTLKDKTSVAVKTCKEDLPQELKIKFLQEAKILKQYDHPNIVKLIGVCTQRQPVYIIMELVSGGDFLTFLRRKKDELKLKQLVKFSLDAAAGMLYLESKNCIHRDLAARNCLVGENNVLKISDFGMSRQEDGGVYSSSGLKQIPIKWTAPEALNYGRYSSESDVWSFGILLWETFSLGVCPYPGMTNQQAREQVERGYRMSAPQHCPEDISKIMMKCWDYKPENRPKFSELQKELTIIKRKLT
Procedure: as §1

[15] = biological target: T15, FGFR1 V561M (Homo sapiens, UniProt P11362, V561M); assay: ProfilerPro Kinase Selectivity, FGFR1 V561M
T15 construct: purchased Caliper LifeSciences
Procedure: as §1

[16] = biological target: T16, FGFR2 (Homo sapiens, UniProt P21802); assay: ProfilerPro Kinase Selectivity, FGFR2
T16 construct: purchased Caliper LifeSciences
Procedure: as §1

[17] = biological target: T17, FGFR2 N549H (Homo sapiens, UniProt P21802, N549H); assay: ProfilerPro Kinase Selectivity, FGFR2 N549H
T17 construct: purchased Caliper LifeSciences
Procedure: as §1

[18] = biological target: T18, FGFR3 (Homo sapiens, UniProt P22607); assay: ProfilerPro Kinase Selectivity, FGFR3
T18 construct: purchased Caliper LifeSciences
Procedure: as §1

[19] = biological target: T19, FGFR4 (Homo sapiens, UniProt P22455); assay: ProfilerPro Kinase Selectivity, FGFR4
T19 construct: purchased Caliper LifeSciences
Procedure: as §1

[20] = biological target: T20, FMS (Homo sapiens, UniProt P07333); assay: ProfilerPro Kinase Selectivity, FMS
T20 construct: purchased Caliper LifeSciences
Procedure: as §1

[21] = biological target: T21, GSK3B (Homo sapiens, UniProt P49841); assay: ProfilerPro Kinase Selectivity, GSK3B
T21 construct: purchased Caliper LifeSciences
Procedure: as §1

[22] = biological target: T22, HER4 (Homo sapiens, UniProt Q15303); assay: ProfilerPro Kinase Selectivity, HER4
T22 construct: purchased Caliper LifeSciences
T22 sequence (Q15303 26-1308, species assumed): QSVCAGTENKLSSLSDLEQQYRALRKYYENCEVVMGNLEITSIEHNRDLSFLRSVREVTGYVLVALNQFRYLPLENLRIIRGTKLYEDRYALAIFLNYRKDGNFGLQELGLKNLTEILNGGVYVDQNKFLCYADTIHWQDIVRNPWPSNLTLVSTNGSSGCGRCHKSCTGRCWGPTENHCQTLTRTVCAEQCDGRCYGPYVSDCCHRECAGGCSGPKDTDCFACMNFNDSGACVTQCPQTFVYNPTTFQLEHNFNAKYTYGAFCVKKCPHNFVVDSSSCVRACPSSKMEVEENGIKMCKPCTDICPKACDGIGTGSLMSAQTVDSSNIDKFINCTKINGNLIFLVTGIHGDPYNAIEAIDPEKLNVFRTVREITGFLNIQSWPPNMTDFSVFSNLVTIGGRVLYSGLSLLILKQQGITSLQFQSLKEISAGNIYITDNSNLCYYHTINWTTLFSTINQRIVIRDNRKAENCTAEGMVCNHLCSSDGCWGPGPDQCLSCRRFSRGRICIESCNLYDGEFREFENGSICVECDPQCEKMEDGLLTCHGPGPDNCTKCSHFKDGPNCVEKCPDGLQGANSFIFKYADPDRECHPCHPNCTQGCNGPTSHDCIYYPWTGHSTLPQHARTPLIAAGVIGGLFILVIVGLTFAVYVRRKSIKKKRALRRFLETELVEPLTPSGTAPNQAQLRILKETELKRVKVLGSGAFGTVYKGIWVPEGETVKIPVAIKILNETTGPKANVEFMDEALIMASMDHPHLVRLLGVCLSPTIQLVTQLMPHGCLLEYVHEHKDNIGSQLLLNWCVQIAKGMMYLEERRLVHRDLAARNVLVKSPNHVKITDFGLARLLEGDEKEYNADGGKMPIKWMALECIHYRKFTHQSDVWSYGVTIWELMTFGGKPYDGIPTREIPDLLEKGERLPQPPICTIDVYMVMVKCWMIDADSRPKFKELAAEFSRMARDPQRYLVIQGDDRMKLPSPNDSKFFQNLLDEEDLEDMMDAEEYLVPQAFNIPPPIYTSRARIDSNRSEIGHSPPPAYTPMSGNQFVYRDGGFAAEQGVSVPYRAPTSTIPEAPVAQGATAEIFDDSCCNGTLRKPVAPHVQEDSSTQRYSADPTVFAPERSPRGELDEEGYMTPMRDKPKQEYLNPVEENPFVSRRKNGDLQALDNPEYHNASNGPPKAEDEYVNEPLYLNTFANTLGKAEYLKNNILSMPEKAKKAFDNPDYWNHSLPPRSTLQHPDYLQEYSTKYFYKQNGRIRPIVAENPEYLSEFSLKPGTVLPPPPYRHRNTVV
Procedure: as §1

[23] = biological target: T23, IRAK4 (Homo sapiens, UniProt Q9NWZ3); assay: ProfilerPro Kinase Selectivity, IRAK4
T23 construct: purchased Caliper LifeSciences
Procedure: as §1

[24] = biological target: T24, KIT (Homo sapiens, UniProt P10721); assay: ProfilerPro Kinase Selectivity, KIT
T24 construct: purchased Caliper LifeSciences
Procedure: as §1

[25] = biological target: T25, LOK (Homo sapiens, UniProt O94804); assay: ProfilerPro Kinase Selectivity, LOK
T25 construct: purchased Caliper LifeSciences
Procedure: as §1

[26] = biological target: T26, LYN (Homo sapiens, UniProt P07948); assay: ProfilerPro Kinase Selectivity, LYN
T26 construct: purchased Caliper LifeSciences
T26 sequence (P07948 whole entry, species assumed): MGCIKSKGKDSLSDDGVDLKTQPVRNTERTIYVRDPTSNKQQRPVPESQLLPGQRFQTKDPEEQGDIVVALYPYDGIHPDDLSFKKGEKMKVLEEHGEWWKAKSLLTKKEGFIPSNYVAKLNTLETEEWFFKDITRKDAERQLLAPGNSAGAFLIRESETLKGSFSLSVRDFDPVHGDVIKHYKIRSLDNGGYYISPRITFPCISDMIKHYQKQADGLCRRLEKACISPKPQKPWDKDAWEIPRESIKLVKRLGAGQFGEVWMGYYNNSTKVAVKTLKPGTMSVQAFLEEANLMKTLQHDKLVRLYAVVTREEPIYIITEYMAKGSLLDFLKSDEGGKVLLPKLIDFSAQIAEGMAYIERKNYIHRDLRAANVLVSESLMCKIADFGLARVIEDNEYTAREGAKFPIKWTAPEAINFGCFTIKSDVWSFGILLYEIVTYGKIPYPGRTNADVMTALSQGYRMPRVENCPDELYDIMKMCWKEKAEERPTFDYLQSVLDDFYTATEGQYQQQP
Procedure: as §1

[27] = biological target: T27, MST1R (Homo sapiens, UniProt Q04912); assay: ProfilerPro Kinase Selectivity, MST1R
T27 construct: purchased Caliper LifeSciences
T27 sequence (Q04912 25-1400, species assumed): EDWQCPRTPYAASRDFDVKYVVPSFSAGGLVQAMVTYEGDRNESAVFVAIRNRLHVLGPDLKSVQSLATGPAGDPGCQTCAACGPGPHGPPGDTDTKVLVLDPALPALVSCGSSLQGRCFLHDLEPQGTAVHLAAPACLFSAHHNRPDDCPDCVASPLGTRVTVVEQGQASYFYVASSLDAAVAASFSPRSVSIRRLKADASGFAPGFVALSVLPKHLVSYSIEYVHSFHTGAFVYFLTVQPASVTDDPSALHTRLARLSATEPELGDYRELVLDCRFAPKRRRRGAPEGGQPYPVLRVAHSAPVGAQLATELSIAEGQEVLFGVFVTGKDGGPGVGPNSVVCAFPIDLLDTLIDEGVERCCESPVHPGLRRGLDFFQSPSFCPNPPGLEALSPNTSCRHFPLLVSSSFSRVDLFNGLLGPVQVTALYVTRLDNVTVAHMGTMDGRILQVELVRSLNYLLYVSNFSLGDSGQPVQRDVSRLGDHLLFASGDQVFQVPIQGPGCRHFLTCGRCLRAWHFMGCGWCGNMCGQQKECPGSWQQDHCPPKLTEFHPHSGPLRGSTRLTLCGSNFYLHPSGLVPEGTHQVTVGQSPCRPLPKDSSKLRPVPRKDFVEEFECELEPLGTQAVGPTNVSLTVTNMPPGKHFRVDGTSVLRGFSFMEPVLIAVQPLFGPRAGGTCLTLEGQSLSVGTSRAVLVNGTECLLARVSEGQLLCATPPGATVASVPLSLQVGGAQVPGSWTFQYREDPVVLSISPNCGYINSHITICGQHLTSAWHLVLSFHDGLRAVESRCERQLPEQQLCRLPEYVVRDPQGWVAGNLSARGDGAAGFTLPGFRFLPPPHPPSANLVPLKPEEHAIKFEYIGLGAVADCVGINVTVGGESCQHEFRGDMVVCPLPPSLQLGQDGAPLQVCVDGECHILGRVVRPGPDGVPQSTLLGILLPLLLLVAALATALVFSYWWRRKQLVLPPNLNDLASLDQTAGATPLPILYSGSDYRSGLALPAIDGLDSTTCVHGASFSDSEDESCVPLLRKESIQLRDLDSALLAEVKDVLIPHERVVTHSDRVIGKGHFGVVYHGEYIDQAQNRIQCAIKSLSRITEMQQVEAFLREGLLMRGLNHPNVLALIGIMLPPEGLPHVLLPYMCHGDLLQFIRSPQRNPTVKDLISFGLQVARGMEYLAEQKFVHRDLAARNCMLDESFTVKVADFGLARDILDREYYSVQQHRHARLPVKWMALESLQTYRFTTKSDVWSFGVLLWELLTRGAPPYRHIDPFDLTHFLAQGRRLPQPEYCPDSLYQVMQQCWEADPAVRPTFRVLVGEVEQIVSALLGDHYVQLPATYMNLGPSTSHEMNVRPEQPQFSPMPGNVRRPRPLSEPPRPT
Procedure: as §1

[28] = biological target: T28, MST3 (Homo sapiens, UniProt Q9Y6E0); assay: ProfilerPro Kinase Selectivity, MST3
T28 construct: purchased Caliper LifeSciences
Procedure: as §1

[29] = biological target: T29, NEK1 (Homo sapiens, UniProt Q96PY6); assay: ProfilerPro Kinase Selectivity, NEK1
T29 construct: purchased Caliper LifeSciences
Procedure: as §1

[30] = biological target: T30, PDGFRB (Homo sapiens, UniProt P09619); assay: ProfilerPro Kinase Selectivity, PDGFRB
T30 construct: purchased Caliper LifeSciences
Procedure: as §1

[31] = biological target: T31, PHKG1 (Homo sapiens, UniProt Q16816); assay: ProfilerPro Kinase Selectivity, PHKG1
T31 construct: purchased Caliper LifeSciences
Procedure: as §1

[32] = biological target: T32, PIM1 (Homo sapiens, UniProt P11309); assay: ProfilerPro Kinase Selectivity, PIM1
T32 construct: purchased Caliper LifeSciences
Procedure: as §1

[33] = biological target: T33, PKD3 (Homo sapiens, UniProt O94806); assay: ProfilerPro Kinase Selectivity, PKD3
T33 construct: purchased Caliper LifeSciences
Procedure: as §1

[34] = biological target: T34, PKG1A (Homo sapiens, UniProt Q13976); assay: ProfilerPro Kinase Selectivity, PKG1A
T34 construct: purchased Caliper LifeSciences
T34 sequence (Q13976 whole entry): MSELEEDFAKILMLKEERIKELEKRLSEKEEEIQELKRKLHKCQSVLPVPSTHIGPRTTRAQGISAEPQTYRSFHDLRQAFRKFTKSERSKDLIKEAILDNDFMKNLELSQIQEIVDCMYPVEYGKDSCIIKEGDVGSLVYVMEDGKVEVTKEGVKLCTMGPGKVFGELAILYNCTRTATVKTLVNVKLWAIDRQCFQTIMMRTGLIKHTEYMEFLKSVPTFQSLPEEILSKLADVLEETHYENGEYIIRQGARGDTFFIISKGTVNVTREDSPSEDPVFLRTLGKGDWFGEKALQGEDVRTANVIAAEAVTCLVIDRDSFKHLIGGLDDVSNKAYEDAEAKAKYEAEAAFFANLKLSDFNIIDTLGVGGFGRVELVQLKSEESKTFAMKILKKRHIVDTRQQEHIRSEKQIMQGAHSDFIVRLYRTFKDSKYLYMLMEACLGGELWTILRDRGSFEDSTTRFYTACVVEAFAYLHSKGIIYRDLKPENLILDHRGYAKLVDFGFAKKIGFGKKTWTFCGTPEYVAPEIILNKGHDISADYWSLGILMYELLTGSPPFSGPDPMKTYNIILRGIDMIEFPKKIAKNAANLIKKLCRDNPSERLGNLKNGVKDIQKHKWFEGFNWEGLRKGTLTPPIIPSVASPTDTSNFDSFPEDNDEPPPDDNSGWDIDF
Procedure: as §1

[35] = biological target: T35, PRKCE (Homo sapiens, UniProt Q02156); assay: ProfilerPro Kinase Selectivity, PRKCE
T35 construct: purchased Caliper LifeSciences
Procedure: as §1

[36] = biological target: T36, RSK2 (Homo sapiens, UniProt P51812); assay: ProfilerPro Kinase Selectivity, RSK2
T36 construct: purchased Caliper LifeSciences
Procedure: as §1

[37] = biological target: T37, TXK (Homo sapiens, UniProt P42681); assay: ProfilerPro Kinase Selectivity, TXK
T37 construct: purchased Caliper LifeSciences
Procedure: as §1

[38] = biological target: T38, TYRO3 (Homo sapiens, UniProt Q06418); assay: ProfilerPro Kinase Selectivity, TYRO3
T38 construct: purchased Caliper LifeSciences
Procedure: as §1

[39] = biological target: T39, ZIPK (Homo sapiens, UniProt O43293); assay: ProfilerPro Kinase Selectivity, ZIPK
T39 construct: purchased Caliper LifeSciences
Procedure: as §1

Work on `CSc1sc(-c2cc[nH]n2)c2c1C(=O)CCC2` [Example 1, 3-(Methylsulfanyl)-1-(1H-pyrazol-3-yl)-6,7-dihydro-2-benzothiophen-4(5H)-one] yielded an inhibition at 10 µM [1] of 10.3%, an inhibition at 10 µM [2] of 2.5% and an inhibition at 10 µM [3] of -3.2%. For the same compound, the inhibition at 10 µM [4] was 57.7%, the inhibition at 10 µM [5] was 27.9% and the inhibition at 10 µM [6] was 13.5%. It also gave an inhibition at 10 µM [7] of 6.6%, an inhibition at 10 µM [8] of 7.4% and an inhibition at 10 µM [9] of 6.3%. For the same compound, the inhibition at 10 µM [10] was 5.3%, the inhibition at 10 µM [11] was 21.4% and the inhibition at 10 µM [12] was -2.2%. For the same compound, the inhibition at 10 µM [13] was 3%, the inhibition at 10 µM [14] was 11.6% and the inhibition at 10 µM [15] was 4.4%. It also gave an inhibition at 10 µM [16] of 4.9%, an inhibition at 10 µM [17] of 1.4% and an inhibition at 10 µM [18] of 9%. The inhibition at 10 µM [19] was 5.9%, the inhibition at 10 µM [20] was -36.1% and the inhibition at 10 µM [21] was 5.4%. The inhibition at 10 µM [22] was -2.4%, the inhibition at 10 µM [23] was 31.1% and the inhibition at 10 µM [24] was 19.2%. It also gave an inhibition at 10 µM [25] of 7.5%, an inhibition at 10 µM [26] of 10.2% and an inhibition at 10 µM [27] of -1.3%. It also gave an inhibition at 10 µM [28] of -2.2%, an inhibition at 10 µM [29] of 9.1% and an inhibition at 10 µM [30] of 22.1%. For the same compound, the inhibition at 10 µM [31] was 6.3%, the inhibition at 10 µM [32] was 26.3% and the inhibition at 10 µM [33] was 12%. For the same compound, the inhibition at 10 µM [34] was -5.9%, the inhibition at 10 µM [35] was -2.7% and the inhibition at 10 µM [36] was 5.5%. It also gave an inhibition at 10 µM [37] of 22.7%, an inhibition at 10 µM [38] of 8.6% and an inhibition at 10 µM [39] of 8.1%.
`CC1(C)CC(=O)c2c(SC3CCCC3)sc(-c3cc[nH]n3)c2C1` [Example 7, 3-(Cyclopentylsulfanyl)-6,6-dimethyl-1-(1H-pyrazol-3-yl)-6,7-dihydro-2-benzothiophen-4(5H)-one] was tested, and the inhibition at 10 µM [1] was 3.1%, the inhibition at 10 µM [2] was 10.6% and the inhibition at 10 µM [3] was 0.1%. For the same compound, the inhibition at 10 µM [4] was -3.1%, the inhibition at 10 µM [5] was 3.5% and the inhibition at 10 µM [6] was 12.3%. For the same compound, the inhibition at 10 µM [7] was 3.2%, the inhibition at 10 µM [8] was 6% and the inhibition at 10 µM [9] was 6%. The inhibition at 10 µM [10] was -6.7%, the inhibition at 10 µM [11] was 2.5% and the inhibition at 10 µM [12] was -2.9%. It also gave an inhibition at 10 µM [13] of 3.3%, an inhibition at 10 µM [14] of -0.2% and an inhibition at 10 µM [15] of 7.9%. The inhibition at 10 µM [16] was 2.6%, the inhibition at 10 µM [17] was -5.8% and the inhibition at 10 µM [18] was -2.6%. For the same compound, the inhibition at 10 µM [19] was -0.1%, the inhibition at 10 µM [20] was -6.5% and the inhibition at 10 µM [21] was 0.5%. It also gave an inhibition at 10 µM [22] of -2.2%, an inhibition at 10 µM [23] of 3.7% and an inhibition at 10 µM [24] of -7.3%. It also gave an inhibition at 10 µM [25] of -32.6%, an inhibition at 10 µM [26] of 4% and an inhibition at 10 µM [27] of -7%. For the same compound, the inhibition at 10 µM [28] was -10.9%, the inhibition at 10 µM [29] was 1.4% and the inhibition at 10 µM [30] was -1.4%. It also gave an inhibition at 10 µM [31] of 4.6%, an inhibition at 10 µM [32] of -16.3% and an inhibition at 10 µM [33] of 2.6%. For the same compound, the inhibition at 10 µM [34] was 1.9%, the inhibition at 10 µM [35] was 3.9% and the inhibition at 10 µM [36] was 3.5%. The inhibition at 10 µM [37] was 8.4%, the inhibition at 10 µM [38] was 10.5% and the inhibition at 10 µM [39] was 1%.
